Where a name gives a salt, the structure may show the parent alone.
How the values were obtained:
CXCR4 = conditions: ref [14],[17]; cited from earlier work
SupB15 cells = assay: Real-time cell growth by IncuCyte, SupB15; type: cell-based, human; conditions: 1 µM, 96 h; n = 3
Experimental: (§1) The cells were plated in 100 μL complete medium.

[1] = test system: TKO-EV cells (untransformed mouse BM pro-B cells); assay: Real-time cell growth analysis by IncuCyte, untransformed TKO-EV cells; conditions: 1 µM, 96 h; n = 3
Experimental: A flat-bottom 96-well plate was coated with 0.01% poly-L ornithine (#P4957, Sigma-Aldrich, Hamburg, Germany) for 1 h at room temperature (RT). BCR–ABL1, SupB15, and 697 cells were counted as 0.5 × 10^5 cells/well, while TKO-BCR–ABL1 and TKO-EV cells as 1 × 10^5 cells/well, which were labeled with IncuCyte Cytotox Red dye (#4632, Sartorius, Ulm, Germany) as per the manufacturer’s protocol. The cells were plated in 100 μL complete medium. […] Plate was prewarmed at 37 °C for 30 min prior to placing in the IncuCyte chamber. Scanning was conducted every two hours for total of 4 days. Images were acquired using a 20X objective in phase contrast and fluorescence mode at 4 images/well and analyzed using the cell-by-cell analysis module of IncuCyte software version 2020B (Essen Bioscience, Ann Arbor, MI, USA).

697 cells = assay: Real-time cell growth by IncuCyte, 697; type: cell-based, human; conditions: 1 µM, 96 h; n = 3
Experimental: as §1

[2] = test system: BCR–ABL1-transformed mouse B cells; assay: Real-time cell growth analysis by IncuCyte (GFP+ cell enrichment); type: cell-based; conditions: 1, 5 and 10 µM, over 96 h; n = 4–5
Experimental: A flat-bottom 96-well plate was coated with 0.01% poly-L ornithine (#P4957, Sigma-Aldrich, Hamburg, Germany) for 1 h at room temperature (RT). […] The cells were plated in 100 μL complete medium. […] Plate was prewarmed at 37 °C for 30 min prior to placing in the IncuCyte chamber. Scanning was conducted every two hours for total of 4 days.

Molecule	CXCL12-induced calcium signaling (CXCR4)	also measured
ILRWSRK * (Glu-Pal)-NH2 [JM#192, fatty-acid-conjugated optimized EPI-X4 derivative]	block CXCL12-induced calcium signaling	
Cc1ccc(NC(=O)c2ccc(CN3CCN(C)CC3)cc2)cc1Nc1nccc(-c2cccnc2)n1 [Imatinib, Imatinib mesylate, reference compound]		SupB15 cell growth vs DMSO (SupB15 cells): significantly reduced SupB15 cell growth; Survival/growth of TKO-EV cells [1]: no effect on the TKO-EV cells; 697 cell growth vs DMSO (697 cells): no effect on the 697 cells
ILRWSRK * (Glu-Pal)LPCVS [JM#143, fatty-acid-conjugated optimized EPI-X4 derivative]	block CXCL12-induced calcium signaling	
ILRWSRKLPCVS [JM#21]	block CXCL12-induced calcium signaling	
IVRWSKK * (Pal)VPCVS [JM#169, fatty-acid-conjugated optimized EPI-X4 derivative]	block CXCL12-induced calcium signaling	GFP enrichment (BCR–ABL1 cell growth) vs DMSO [2]: significant reduction in cell growth only after 72 h
IVRWSKKVPCVS [WSC02, optimized 12-mer EPI-X4 derivative]	block CXCL12-induced calcium signaling	
